This note sets out measurements from patent US7534871B2, “Preparation and use of carbohydrate-based bicyclic ring structures with antimicrobial and cytostatic activity” (Kemin Pharma B.V.B.A., priority 2004, dated 2009).

Each structure is given as a SMILES string. In brackets after ≈: the same amount, converted by molar mass. Where only a bound is given, the exact number is not on record here.

For series [1], the system named is HSV-1 (KOS). Kind of series: Anti-viral activity: HSV-1-induced cytopathicity in human embryo fibroblast E6SM cell cultures. The note with it: Human alphaherpesvirus 1, 50%. Format: cell-based, herpes simplex virus (HSV).
Series [2] deals with HSV-2 (G). The series can be described thus: Anti-viral activity: HSV-2-induced cytopathicity in human embryo fibroblast E6SM cell cultures. Format: cell-based, herpes simplex virus (HSV). The settings on record: Human alphaherpesvirus 2, 50%. (Protection from cytopathic effect is a common read-out in antiviral testing.)
In series [3] the test system is VV. Kind of series: microbe, parasite or virus in culture. The settings on record: Orthopoxvirus vaccinia, E6SM, read-out: EC50 VV (E6SM). Type of series: cell-based.
In series [4] the test system is VZV OKA. The series can be described thus: microbe, parasite or virus in culture. Type of series: cell-based, varicella zoster virus (VZV). The note with it: Human alphaherpesvirus 3, HEL, read-out: EC50 VZV (HEL) OKA.
Series [5] has as its system VZV YS. The series can be described thus: Anti-viral activity: VZV-induced plaque formation in HEL cell cultures, YS strain. The note with it: Human alphaherpesvirus 3, VZV-induced plaque formation in human embryonic lung HEL cell cultures, 50%. Type of series: cell-based, varicella zoster virus (VZV).
Series [6] has as its system CMV AD-169 strain. The series can be described thus: Anti-CMV activity: plaque reduction in HEL cells, AD-169 strain. Type of series: cell-based, human cytomegalovirus (CMV). The note with it: Human betaherpesvirus 5, AD169, HEL; Table 6; reduce virus plaque formation by 50%; virus input 100 PFU; read-out: Anti-CMV activity IC50 AD-169 strain.
The test system of series [7] is CMV Davis strain. Kind of series: Anti-CMV activity: plaque reduction in HEL cells, Davis strain. Format: cell-based, human cytomegalovirus (CMV). The settings on record: Human betaherpesvirus 5, HEL; Table 6; reduce virus plaque formation by 50%; virus input 100 PFU; read-out: Anti-CMV activity IC50 Davis strain.
Series [8] has as its system murine leukemia cells (L1210/0). Kind of series: Cytostatic activity: inhibition of proliferation of L1210/0 cells. Type of series: cell-based. The note with it: Mus musculus, L1210/0; 50% inhibitory concentration, cell proliferation; read-out: IC50 L1210/0. On the procedure:
(§1) The compounds were tested for anti-tumor activity via the inhibitory effects on the proliferation of murine leukemia cells (L1210/0), murine mammary carcinoma cells (FM3A), human T-lymphocyte cells (Molt4/C8, CEM/0) and human cervix carcinoma cells (HeLa).

Series [9] relates to murine mammary carcinoma cells (FM3A). Kind of series: Cytostatic activity: inhibition of proliferation of FM3A cells. The note with it: Mus musculus, 50% inhibitory concentration, cell proliferation, read-out: IC50 FM3A/0. Type of series: cell-based. On the procedure: as §1
In series [10] the test system is human T-lymphocyte cells (Molt4/C8). The series can be described thus: Cytostatic activity: inhibition of proliferation of Molt4/C8 cells. The note with it: Molt4/C8, 50% inhibitory concentration, cell proliferation, read-out: IC50 Molt4/C8. Type of series: cell-based. On the procedure: as §1
Series [11] concerns human T-lymphocyte cells (CEM/0). The series can be described thus: Cytostatic activity: inhibition of proliferation of CEM/0 cells. Format: cell-based. The note with it: CCRF-CEM, 50% inhibitory concentration, cell proliferation, read-out: IC50 CEM/0. On the procedure: as §1
Series [12] deals with HEL cells. Kind of series: Cytotoxicity: alteration of cell morphology (MCC). Type of series: cell-based, human. The note with it: minimum cytotoxic concentration that causes a microscopically detectable alteration of cell morphology.
Series [13] can be described thus: Cytotoxicity: inhibition of HEL cell growth (CC50). Type of series: cell-based. The settings on record: human; concentration required to reduce cell growth by 50%; HEL cells, three days. As to the method:
The medium was then replaced by MEM containing various concentrations of the test compound. After three days incubation at 37° C., when the cell monolayer was 70% confluent, the cell number was determined with the Coulter counter. The minimum cytotoxic concentration was defined as the concentration required to reduce cell growth by 50%.

The test system of series [14] is human cervix carcinoma cells (HeLa). The series can be described thus: Cytostatic activity: inhibition of proliferation of HeLa cells. Type of series: cell-based. The note with it: 50% inhibitory concentration, cell proliferation. As to the method:
as §1

`CO[C@@H]1[C@@H](OC)[C@H](Sc2ccccc2)O[C@@H]2CO[C@@H](c3ccccc3)O[C@@H]12` [KPE00001045]: the concentration giving a half-maximal response (EC50) was above 3.2 µg/mL in series [1]; above 3.2 µg/mL in [2]; above 3.2 µg/mL in series [3]; above 2 µg/mL in series [4]; above 2 µg/mL in series [5]. The IC50 is above 5 µg/mL in series [6]; above 5 µg/mL in series [7]; above 200 µg/mL in series [8]; above 200 µg/mL in [9]; above 200 µg/mL in [10]; above 200 µg/mL in series [11]. In addition, in series [12], the “Cytotoxicity Cell morphology (MCC)” value is on record as 20 μg/ml. This compound also showed a 50% cytotoxic concentration (CC50) at 3 days in series [13] of 50 µg/mL (≈ 129 µM).
As to `O[C@@H]1[C@@H](O)[C@H](Sc2ccccc2)O[C@@H]2CO[C@@H](c3ccccc3)O[C@@H]12` [KPE00001048], the EC50 is above 80 µg/mL in series [1]; above 80 µg/mL in [2]; above 80 µg/mL in series [3]; above 50 µg/mL in series [4]; above 50 µg/mL in [5]. The IC50 in series [6] came out at 33 µg/mL (≈ 91.6 µM); in series [7], 35 µg/mL (≈ 97.1 µM); in series [8], 103 ± 10 µg/mL (≈ 286 µM); in [9] it was 171 ± 41 µg/mL (≈ 474 µM); in series [10] it was 78 ± 12 µg/mL (≈ 216 µM); in series [11], 75 ± 31 µg/mL (≈ 208 µM). The “Cytotoxicity Cell morphology (MCC)” value in series [12] is reported as above 50 μg/ml. In series [13], the CC50 at 3 days is above 50 µg/mL.
Regarding `CCO[C@@H]1[C@@H](OCC)[C@H](Sc2ccccc2)O[C@@H]2CO[C@@H](c3ccccc3)O[C@@H]12` [KPE00001050], the EC50 in [1] is above 3.2 µg/mL; in [2], above 3.2 µg/mL; in series [3] it was above 3.2 µg/mL; in [4] it was above 5 µg/mL; in [5], above 5 µg/mL. Besides, the IC50 in series [6] is above 50 µg/mL; in series [7], above 50 µg/mL; in [8] it was above 200 µg/mL; in [9], above 200 µg/mL; in series [10] it was above 200 µg/mL; in series [11], above 200 µg/mL. The compound further yielded an IC50 in series [14] above 200 µg/mL. In addition, the “Cytotoxicity Cell morphology (MCC)” value in series [12] was above 50 μg/ml. In series [13], this compound gave a CC50 at 3 days above 50 µg/mL.

In general, EC50 refers to the concentration needed to bring the measured effect to its halfway point. A word on the CC50: it is the concentration at which the toxic effect on the cells reaches its halfway point. A high value points to lower toxicity to the cells.
